Legend:
[1] = tested on: ABUTH (Velvetleaf); experiment: Postemergence herbicidal evaluation; assay type: in vivo, Abutilon theophrasti
In short: (§1)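 ~2-wk seedlings; postemergence spray, 40 psi; vehicle 1:1 acetone:water + 0.5% Tween 20; rate ≈0.0156–0.500 kg/ha; greenhouse hold; scored 4–5 wk after treatment, 0–9 scale vs control; repeat tests averaged.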

[2] = tested on: ECHCG (Barnyardgrass); experiment: Postemergence herbicidal evaluation; assay type: in vivo, Echinochloa crus-galli
In short: as §1

[3] = tested on: TRZAWR (Wheat, Winter, cv Riband); experiment: Postemergence herbicidal evaluation; assay type: in vivo, Triticum aestivum
In short: as §1

[4] = tested on: GALAP (Galium); experiment: Preemergence herbicidal evaluation; assay type: in vivo, Galium aparine; conditions: rated 4-5 weeks after treatment
In short: (§2)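 Rating at 4–5 wk post-spray on a 0–9 visual scale vs control. Application: aqueous acetone, ~0.0156–0.500 kg/ha, to soil surface after seeding, preemergence.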

[5] = tested on: ZEAMX (Corn, Field); experiment: Preemergence herbicidal evaluation; assay type: in vivo, Zea mays; conditions: rated 4-5 weeks after treatment
In short: as §2

[6] = tested on: ECHORC (Watergrass (Calif.)); experiment: Postemergence weed control under flooded paddy conditions; assay type: in vivo, Echinochloa oryzoides; conditions: rate 0.2500 kg/ha, postemergence weeds, 3-4 weeks after treatment
In short: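 With weeds 3 to 5 cm tall and rice at the 1.5 to 2.5 leaf stage, containers were flooded and water held 1.5 to 3 cm above soil. Compounds in 50/50 v/v aqueous/acetone went into the flood water at about 0.0313 to 0.500 kg/ha a.i. Effects were visually rated 0–9 against controls after three to four weeks in the greenhouse.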

[7] = tested on: AMBEL (Ragweed, Common); experiment: Postemergence herbicidal evaluation; assay type: in vivo, Ambrosia artemisifolia
In short: as §1

[8] = tested on: IPOHE (Morningglory, Ivyleaf); experiment: Postemergence herbicidal evaluation; assay type: in vivo, Ipomoea hederacea
In short: as §1

[9] = tested on: ECHCG (Barnyardgrass); experiment: Preemergence herbicidal evaluation; assay type: in vivo, Echinochloa crus-galli; conditions: rated 4-5 weeks after treatment
In short: as §2

[10] = tested on: GLXMAW (Soybean, Williams); experiment: Postemergence herbicidal evaluation; assay type: in vivo, Glycine max, (L.) Merr. cv Williams
In short: as §1

[11] = tested on: CASOB (Sicklepod); experiment: Preemergence herbicidal evaluation; assay type: in vivo, Cassia obtusifolia; conditions: rated 4-5 weeks after treatment
In short: as §2

[12] = tested on: CHEAL (Lambsquarters, Common); experiment: Preemergence herbicidal evaluation; assay type: in vivo, Chenopodium album; conditions: rated 4-5 weeks after treatment
In short: as §2

[13] = tested on: IPOHE (Morningglory, Ivyleaf); experiment: Preemergence herbicidal evaluation; assay type: in vivo, Ipomoea hederacea; conditions: rated 4-5 weeks after treatment
In short: as §2

[14] = tested on: SETVI (Foxtail, Green); experiment: Postemergence herbicidal evaluation; assay type: in vivo, Setaria viridis
In short: as §1

## CCOC(=O)CN1C(=O)C(CC(=O)O)SC1=Nc1cc(-n2c(=O)cc(C(F)(F)F)n(C)c2=O)c(Cl)cc1Cl (stereo not shown) [Compound 33, 2-{{2,4-Dichloro-5-[3,6-dihydro-3-methyl-2,6-dioxo-4-(trifluoromethyl)-1(2H)-pyrimidinyl]phenyl}-imino}-4-oxo-3,5-thiazolidinediacetic acid, 3-ethyl ester]
[1]; Rate 0.0158 kg/ha
  Postemergence herbicidal rating ABUTH: 9.0
[1]; Rate 0.0315 kg/ha
  Postemergence herbicidal rating ABUTH: 9.0
[1]; Rate 0.0630 kg/ha
  Postemergence herbicidal rating ABUTH: 9.0
[2]; Rate 0.0158 kg/ha
  Postemergence herbicidal rating ECHCG: 2.0
[2]; Rate 0.0315 kg/ha
  Postemergence herbicidal rating ECHCG: 9.0
[2]; Rate 0.0630 kg/ha
  Postemergence herbicidal rating ECHCG: 9.0
[3]; Rate 0.0158 kg/ha
  Postemergence herbicidal rating TRZAWR: 3.5
[3]; Rate 0.0315 kg/ha
  Postemergence herbicidal rating TRZAWR: 5.5
[3]; Rate 0.0630 kg/ha
  Postemergence herbicidal rating TRZAWR: 6.0
[4]; rate 0.0156 kg/ha
  Preemergence herbicidal rating GALAP: 0.0
[4]; rate 0.0313 kg/ha
  Preemergence herbicidal rating GALAP: 0.0
[4]; rate 0.0625 kg/ha
  Preemergence herbicidal rating GALAP: 0.0
[5]; rate 0.0156 kg/ha
  Preemergence herbicidal rating ZEAMX: 0.0
[5]; rate 0.0313 kg/ha
  Preemergence herbicidal rating ZEAMX: 0.0
[5]; rate 0.0625 kg/ha
  Preemergence herbicidal rating ZEAMX: 0.0
[5]; rate 0.1250 kg/ha
  Preemergence herbicidal rating ZEAMX: 0.0
[5]; rate 0.2500 kg/ha
  Preemergence herbicidal rating ZEAMX: 0.0
[6]
  Herbicidal rating ECHORC: 0.0
[7]; Rate 0.0158 kg/ha
  Postemergence herbicidal rating AMBEL: 9.0
[7]; Rate 0.0315 kg/ha
  Postemergence herbicidal rating AMBEL: 9.0
[7]; Rate 0.0630 kg/ha
  Postemergence herbicidal rating AMBEL: 9.0
[8]; Rate 0.0158 kg/ha
  Postemergence herbicidal rating IPOHE: 9.0
[8]; Rate 0.0315 kg/ha
  Postemergence herbicidal rating IPOHE: 9.0
[8]; Rate 0.0630 kg/ha
  Postemergence herbicidal rating IPOHE: 9.0
[9]; rate 0.0156 kg/ha
  Preemergence herbicidal rating ECHCG: 0.0
[9]; rate 0.0313 kg/ha
  Preemergence herbicidal rating ECHCG: 0.0
[9]; rate 0.0625 kg/ha
  Preemergence herbicidal rating ECHCG: 0.0
[9]; rate 0.1250 kg/ha
  Preemergence herbicidal rating ECHCG: 0.0
[9]; rate 0.2500 kg/ha
  Preemergence herbicidal rating ECHCG: 0.0
[10]; Rate 0.0158 kg/ha
  Postemergence herbicidal rating GLXMAW: 7.0
[10]; Rate 0.0315 kg/ha
  Postemergence herbicidal rating GLXMAW: 8.5
[10]; Rate 0.0630 kg/ha
  Postemergence herbicidal rating GLXMAW: 8.5
[11]; rate 0.0156 kg/ha
  Preemergence herbicidal rating CASOB: 0.0
[11]; rate 0.0313 kg/ha
  Preemergence herbicidal rating CASOB: 0.0
[11]; rate 0.0625 kg/ha
  Preemergence herbicidal rating CASOB: 0.0
[11]; rate 0.1250 kg/ha
  Preemergence herbicidal rating CASOB: 4.0
[11]; rate 0.2500 kg/ha
  Preemergence herbicidal rating CASOB: 9.0
[12]; rate 0.0156 kg/ha
  Preemergence herbicidal rating CHEAL: 4.0
[12]; rate 0.0625 kg/ha
  Preemergence herbicidal rating CHEAL: 7.0
[12]; rate 0.1250 kg/ha
  Preemergence herbicidal rating CHEAL: 9.0
[12]; rate 0.2500 kg/ha
  Preemergence herbicidal rating CHEAL: 9.0
[13]; rate 0.0156 kg/ha
  Preemergence herbicidal rating IPOHE: 0.0
[13]; rate 0.0313 kg/ha
  Preemergence herbicidal rating IPOHE: 0.0
[13]; rate 0.0625 kg/ha
  Preemergence herbicidal rating IPOHE: 0.0
[13]; rate 0.1250 kg/ha
  Preemergence herbicidal rating IPOHE: 0.0
[13]; rate 0.2500 kg/ha
  Preemergence herbicidal rating IPOHE: 9.0
[14]; Rate 0.0158 kg/ha
  Postemergence herbicidal rating SETVI: 4.0
[14]; Rate 0.0315 kg/ha
  Postemergence herbicidal rating SETVI: 7.0
[14]; Rate 0.0630 kg/ha
  Postemergence herbicidal rating SETVI: 8.0

Reference: patent publication US20020137929A1, “1 - (3-heterocyclylphenyl) isothiourea, -isourea, -guanidine and -amidine herbicidal agents” (Intellectual Property Department, BASF Aktiengesellschaft, priority 1998, published 2002)
